Test results: patent publication US8865763B2, “Methods and compositions for altering cell function” (Alltech, Inc., priority 2005, dated 2014)

Legend:
Presenilin 1 = test: Microarray gene expression, mouse cerebral cortex: Presenilin 1; type: in vivo; settings: diet 1 ppm Se, vs Se-deficient animals, * P < 0.01
From the text: (§1) Animal Care. Male C57BL/6J mice were housed singly and started on the experimental diets described below immediately after weaning (21 days of age). The mice were maintained in the Shared Aging Rodent Facility at the William S. Middleton Memorial Veterans Administration Medical Center (Madison, Wis.). Temperature and humidity were maintained at constant levels. Room light was controlled to provide 12-hr cycles of light and dark.
(§2) Experimental diets were created by Harlan Teklad (Madison, Wis.). Selenium content of the diets was determined by Covance Inc. (Madison, Wis.). Five (5) animals were included in each of the following treatment groups: a diet deficient in selenium (SD); a diet supplemented with selenomethionine (SM, obtained from Sigma, St. Louis, Mo.) such that the final selenium content of the diet was one (1) part per million; a diet supplemented with sodium selenite (SS, Sigma) such that the final concentration of selenium in this diet was one (1) part per million; or a diet supplemented with the yeast selenium SEL-PLEX (SP, Alltech, Lexington, Ky.), such that the final concentration of selenium in this diet was one (1) part per million. SEL-PLEX. […]
(§3) Tissue sample preparation and microarray analysis. […] For intestinal expression studies, the intestine was flushed twice with saline solution and small intestine was measured and divided in three equal segments. […]

Gst pi 1 (Gstp1) = test: Microarray gene expression, mouse cerebral cortex: Gstp1; type: in vivo; settings: diet 1 ppm Se, vs Se-deficient animals, * significant
From the text: as §1, §2, §3

Nicastrin = test: Microarray gene expression, mouse cerebral cortex: Nicastrin; type: in vivo; settings: diet 1 ppm Se, vs Se-deficient animals, * P < 0.01
From the text: as §1, §2, §3

[1] = tested on: Complement component 1, q subcomponent, gamma polypeptide, C1qg; test: Microarray gene expression, mouse cerebral cortex: C1qg; type: in vivo; settings: diet 1 ppm Se, vs selenium deficient, * p<0.01
From the text: as §1, §2, §3

[2] = Body weight of mice on selenium diets; type: in vivo, mouse; settings: diet 1 ppm Se vs selenium deficient diet; FIG. 1
From the text: as §1
Experimental diets were created by Harlan Teklad (Madison, Wis.). Selenium content of the diets was determined by Covance Inc. (Madison, Wis.). […]
Thus, it was an object of the present invention to determine whether compositions and methods of the present invention could alter the expression levels (e.g., mRNA levels) of various genes. One group of genes analyzed were genes classically associated with selenium. As described above, the expression levels of genes were analyzed between mice with and without dietary selenium, or, between mice fed different sources of selenium) (See, e.g., Table 1, below).

[3] = tested on: Complement component 1, r subcomponent, C1r; test: Microarray gene expression, mouse cerebral cortex: C1r; type: in vivo; settings: diet 1 ppm Se, vs selenium deficient, * p<0.01
From the text: as §1, §2, §3

SelR (Selenoprotein X1) = test: Microarray gene expression, mouse intestine: SelR; type: in vivo; settings: diet 1 ppm Se, vs selenium deficient
From the text: as §1, §2, §3

[4] = tested on: Glutathione S-transferase, mu2 (Gstm2); test: Microarray gene expression, mouse intestine: Gstm2; type: in vivo; settings: diet 1 ppm Se, vs Se-deficient diets, negative = down
From the text: as §1, §2, §3

[5] = tested on: Glutathione S-transferase, alpha 3 (Gsta3); test: Microarray gene expression, mouse intestine: Gsta3; type: in vivo; settings: diet 1 ppm Se, vs Se-deficient diets, negative = down
From the text: as §1, §2, §3

Gadd45b = test: Microarray gene expression, mouse cerebral cortex: Gadd45b; type: in vivo; settings: diet 1 ppm Se, vs Se-deficient animals, * significant
From the text: as §1, §2, §3

[6] = tested on: Growth arrest and DNA-damage-inducible 45 gamma (Gadd45g); test: Microarray gene expression, mouse intestine: Gadd45g; type: in vivo; settings: diet 1 ppm Se, vs selenium deficient, negative = down, listed as SS
From the text: as §1
Experimental diets were created by Harlan Teklad (Madison, Wis.). Selenium content of the diets was determined by Covance Inc. (Madison, Wis.). Five (5) animals were included in each of the following treatment groups: a diet deficient in selenium (SD); a diet supplemented with selenomethionine (SM, obtained from Sigma, St. Louis, Mo.) such that the final selenium content of the diet was one (1) part per million; a diet supplemented with sodium selenite (SS, Sigma) such that the final concentration of selenium in this diet was one (1) part per million; or a diet supplemented with the yeast selenium SEL-PLEX (SP, Alltech, Lexington, Ky.), such that the final concentration of selenium in this diet was one (1) part per million. SEL-PLEX. Mice were provided with water and their respective diet ad libitum for 100 days. Diets were stored at the dark at 4° C. and fresh diet was added to feeder twice weekly.
Tissue sample preparation and microarray analysis. Mice were killed at 100 days of age by cervical dislocation. For intestinal expression studies, the intestine was flushed twice with saline solution and small intestine was measured and divided in three equal segments. A 3-cm region of the middle segment of the small intestine corresponding to the jejunum (˜300 mg of tissue) was cut and rinsed again with physiological saline to completely remove contents, flash frozen in liquid nitrogen and stored at −80° C. For brain (e.g., cerebral cortex) studies, the cerebral cortex was separated from the surrounding brain tissue and was flash frozen in liquid nitrogen and stored at −80° C. […]

[7] = tested on: Glutathione S-transferase, mu1 (Gstm1); test: Microarray gene expression, mouse intestine: Gstm1; type: in vivo; settings: diet 1 ppm Se, vs Se-deficient diets, negative = down
From the text: as §1, §2, §3

Cathepsin O = test: Microarray gene expression, mouse cerebral cortex: Cathepsin O; type: in vivo; settings: diet 1 ppm Se, vs Se-deficient mice, * significant
From the text: as §1, §2, §3

SOD1 = test: Microarray gene expression, mouse intestine: SOD1; type: in vivo; settings: diet 1 ppm Se, vs selenium deficient
From the text: as §1, §2, §3

Junb = test: Microarray gene expression, mouse cerebral cortex: Junb; type: in vivo; settings: diet 1 ppm Se, vs Se-deficient animals, * significant
From the text: as §1, §2, §3

Gst mu 7 (Gstm7) = test: Microarray gene expression, mouse cerebral cortex: Gstm7; type: in vivo; settings: diet 1 ppm Se, vs Se-deficient animals, * significant
From the text: as §1, §2, §3

Cathepsin D = test: Microarray gene expression, mouse cerebral cortex: Cathepsin D; type: in vivo; settings: diet 1 ppm Se, vs Se-deficient mice, * significant
From the text: as §1, §2, §3

[8] = tested on: Cu chaperone for SOD (CCS); test: Microarray gene expression, mouse intestine: CCS; type: in vivo; settings: diet 1 ppm Se, vs selenium deficient
From the text: as §1, §2, §3

Gst zeta 1 (Gstz1) = test: Microarray gene expression, mouse cerebral cortex: Gstz1; type: in vivo; settings: diet 1 ppm Se, vs Se-deficient animals, * significant
From the text: as §1, §2, §3

[9] = tested on: Glutathione S-transferase, mu3 (Gstm3); test: Microarray gene expression, mouse intestine: Gstm3; type: in vivo; settings: diet 1 ppm Se, vs Se-deficient diets, negative = down
From the text: as §1, §2, §3

[10] = tested on: Amyloid beta (A4) precursor-like protein (Aplp 1); test: Microarray gene expression, mouse cerebral cortex: Aplp 1; type: in vivo; settings: diet 1 ppm Se, vs Se-deficient animals, * P < 0.01
From the text: as §1, §2, §3

Which “FC (fold change) expression of Presenilin 1” value (Presenilin 1) does the source give for `O=[Se](O)O` [Sod-sel, sodium selenite] here?
The value was −1.11 fold.

What about the “FC (fold change) expression of Gstp1” value (Gst pi 1 (Gstp1)) of the same molecule?
The value was 1.02 fold.

And the “FC (fold change) expression of Nicastrin” value (Nicastrin)?
The value was −1.67* fold.

And the “FC (fold change) expression of C1qg” value [1]?
Its value is −1.07 fold.

What about the “body weights of mice” value [2] of the same molecule?
Its value is “No significant differences”.

And the “FC (fold change) expression of C1r” value [3]?
Its value is −1.29 fold.

What about the “expression of SelR, fold upregulated” value (SelR (Selenoprotein X1)) of the same molecule?
The value was 1.3 fold.

And the “FC (fold change) expression of Gstm2” value [4]?
The value was −2.1 fold.

And the “FC (fold change) expression of Gsta3” value [5]?
Its value is −2.3 fold.

And the “FC (fold change) expression of Gadd45b in brain” value (Gadd45b)?
The value was −1.39* fold.

And the “FC (fold change) expression of Gadd45g” value [6]?
Its value is −2.0 fold.

And the “FC (fold change) expression of Gstm1” value [7]?
Its value is −2.4 fold.

And the “FC (fold change) expression of Cathepsin O” value (Cathepsin O)?
Its value is −1.18 fold.

And the “enhanced expression of SOD1, fold” value (SOD1)?
The value was 1.92 fold.

What about the “FC (fold change) expression of Junb” value (Junb) of the same molecule?
The value was −1.59 fold.

What about the “FC (fold change) expression of Gstm7” value (Gst mu 7 (Gstm7)) of the same molecule?
Its value is −1.25* fold.

And the “FC (fold change) expression of Cathepsin D” value (Cathepsin D)?
The value was −1.24* fold.

And the “enhancement in expression of the Cu chaperone for SOD (CCS), fold” value [8]?
The value was 1.28 fold.

What about the “FC (fold change) expression of Gstz1” value (Gst zeta 1 (Gstz1)) of the same molecule?
Its value is −1.3 fold.

What about the “FC (fold change) expression of Gstm3” value [9] of the same molecule?
Its value is −2.7 fold.

What about the “FC (fold change) expression of Aplp 1” value [10] of the same molecule?
The value was −1.55* fold.
